Reference: US12486265B2, “2-aminopyrimidine compounds and pharmaceutical compositions and uses thereof” (Shanghai Zhimeng Biopharma, Inc., priority 2019, dated 2025)
Like-named read-outs stand apart in the source and are kept apart here. Each block holds one compound with its values, some of them ahead of it.

How the values were obtained:
human TLR7 = molecular target: T1, human TLR7 (Homo sapiens, UniProt Q9NYK1); test: hTLR7 receptor binding activity in vitro (HEK-Blue hTLR7 SEAP reporter); assay type: cell-based; conditions: HEK-Blue hTLR7 cells, 24 hours, SEAP OD650
T1 construct: host or cells: HEK-Blue hTLR7 (HEK293-derived)
T1 sequence (Q9NYK1 27-1049): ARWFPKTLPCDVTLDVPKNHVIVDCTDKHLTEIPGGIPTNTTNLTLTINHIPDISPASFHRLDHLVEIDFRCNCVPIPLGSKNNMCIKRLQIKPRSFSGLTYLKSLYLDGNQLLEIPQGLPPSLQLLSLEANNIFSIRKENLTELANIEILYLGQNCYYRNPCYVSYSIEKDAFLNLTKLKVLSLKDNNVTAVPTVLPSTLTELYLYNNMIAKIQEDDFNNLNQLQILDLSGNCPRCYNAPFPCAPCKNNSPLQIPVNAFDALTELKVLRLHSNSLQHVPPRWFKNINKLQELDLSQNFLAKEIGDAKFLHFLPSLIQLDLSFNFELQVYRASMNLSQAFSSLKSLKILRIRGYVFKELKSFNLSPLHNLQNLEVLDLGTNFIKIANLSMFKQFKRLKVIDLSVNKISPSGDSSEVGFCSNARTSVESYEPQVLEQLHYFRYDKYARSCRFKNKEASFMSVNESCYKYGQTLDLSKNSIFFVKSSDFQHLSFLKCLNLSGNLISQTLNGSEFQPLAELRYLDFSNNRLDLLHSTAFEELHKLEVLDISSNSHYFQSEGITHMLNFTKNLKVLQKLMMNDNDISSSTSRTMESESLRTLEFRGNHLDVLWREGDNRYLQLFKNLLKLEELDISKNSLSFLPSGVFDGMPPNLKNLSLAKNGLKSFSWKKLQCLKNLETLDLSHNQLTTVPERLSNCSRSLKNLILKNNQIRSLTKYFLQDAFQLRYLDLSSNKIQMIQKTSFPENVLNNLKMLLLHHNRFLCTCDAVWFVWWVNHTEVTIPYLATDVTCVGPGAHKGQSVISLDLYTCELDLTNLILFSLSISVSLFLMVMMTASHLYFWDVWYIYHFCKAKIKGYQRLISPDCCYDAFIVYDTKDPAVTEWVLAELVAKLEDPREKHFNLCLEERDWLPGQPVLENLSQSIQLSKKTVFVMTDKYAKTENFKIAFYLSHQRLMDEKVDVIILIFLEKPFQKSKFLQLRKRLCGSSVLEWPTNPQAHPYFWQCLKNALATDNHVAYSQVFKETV
Description: (§1) The ability of the compounds of the present invention to activate TLR7 and TLR8 respectively was evaluated by using receptor binding experiments in vitro.
(§2) HEK-Blue™ hTLR7 (article number: hkb-htlr7) and HEK-Blue™ hTLR8 (article number: hkb-htlr8) cells were purchased from InvivoGen company. HEK-Blue™ hTLR7/8 cells can indicate the activation of TLR7/8 by detecting the activation level of NF-κB signaling pathway. HEK-Blue™ hTLR7/8 cells are derived from human embryonic kidney 293 cells, stably expressing human TLR7 or human TLR8, respectively, and can induce expression of secretory alkaline phosphatase (SEAP) to report gene system. The expression of SEAP reporter gene is regulated by IFN-β simplified promoter, which is composed of 5 NF-κB binding sequences and AP-1 binding sequences. Therefore, when TLR7/8 is activated in these two cells, NF-κB and AP-1 will be activated, and SEAP expression and extracellular secretion will be induced. By detecting the activity of SEAP outside the cell, the activation level of TLR7/8 can be indicated.
(§3) • (1) The compound was added to the cell culture plate after a 3-fold gradient dilution, with a total of 10 concentrations, with two duplicates wells for each concentration.
(§4) [drawing 45] per well; • (2) HEK-Blue™ hTLR7/8 cells were digested separately, counted, and the cells at 5.0×10^4 cells per well were added to a 96-well cell culture plate containing compounds; (3) The cells added with the compound were placed in a 5% CO2 incubator at 37° C. for 24 hours; • (4) Compound activity detection: took 20 µl/well cell culture supernatant and added it to 96-well plate containing 180 μl QUANTI-BLUE™ reagent. Incubated at 37° C. for one hour, and the optical density absorption value (OD650) at 650 nm was detected with a multifunctional microplate reader; • (5) Cell activity detection: operated according to the Celltiter-Glo instructions, and the chemiluminescence signal (RLU) was detected by a multifunctional microplate reader Envision; • (6) Data analysis: • Compound activity: OD650 value was analyzed by GraphPad Prism software, and the dose effect curve of the compound was fitted to calculate the EC50 value of the compound.

[1] = Cell activity detection (Celltiter-Glo) in HEK-Blue hTLR8 cells; assay type: cell-based; conditions: human
Description: as §4
(§5) Cell activity detection: cell activity was analyzed by GraphPad Prism software, and the dose effect curve of the compound was fitted to calculate the CC50 value of the compound to the cell.

IL-12p40 in human PBMC = test: IL-12p40 induction in human PBMC (ELISA); assay type: cell-based
Source text: The human peripheral blood mononuclear cell (PBMC) experiment and the IL-12p40 ELISA detection method are used to detect the IL-12p40 inducing activity of the compound of the present invention in human PBMC.
Toll-like receptors (TLRs) are a series of switches that regulate the human immune system and occupy an important position in both innate (non-specific) and specific immunity. TLR8 is mainly expressed in monocytes, macrophages and myeloid dendritic cells. TLR8 is expressed on the Endosome intima of the cell and recognizes single-stranded RNA with high GU (guanylate/uridonic acid) content. After TLR8 signaling pathway is activated, it will activate the secretion of a series of downstream cytokines (IL-12, TNF-alpha, IFN-gamma, etc.), causing antiviral immune response. In this experiment, the compound was used to stimulate human PBMC, and the level of IL-12p40 protein in the culture supernatant was detected to evaluate the activation level of the compound on the TLR8 signaling pathway.
• (1) The compound was added to the cell plate after a 3-fold gradient dilution, with a total of 8 concentrations, and two duplicate wells for each concentration.
(§6) Resuspended, cell number was counted, and the cell suspension was adjusted to 2.5×10^6 cells/ml with the culture medium.

[2] = Cell activity detection (Celltiter-Glo) in human PBMC; assay type: cell-based
Description: as §6, §5

[3] = Pharmacokinetic study in male SD rats; assay type: in vivo; conditions: rat, plasma
Description: Pharmacokinetic study: 6 healthy male SD rats (SPF grade) were divided into 2 groups and 3 rats/group. […] Within half an hour, plasma was taken after centrifugation (6000 rpm, 8 minutes, 4° C.) and frozen at −20° C. for later use. Experimental results: According to the obtained blood drug concentration data, the non-compartmental model of WinNonlin® 8.1 software (Certara, USA) was used to calculate the pharmacokinetic parameters after administration.

[4] = Liver-blood ratio study in male SD rats; assay type: in vivo; conditions: rat, liver / plasma, single oral administration; for Kp at 1 h: time point 1 h; for Kp at 4 h: time point 4 h
Description: Liver-blood ratio study: 4 healthy male SD rats (SPF grade) were divided into 2 groups and 2 rats/group. After fasting overnight, compound A and compound X were administrated orally respectively. Blood was taken through cardiac puncture at time points 1 and 4 hours, at least 0.5 mL of whole blood was collected to EDTA-K2 anticoagulant tube, and plasma was taken after centrifugation (6000 rpm, 8 minutes, 4° C.) within half an hour and frozen at −20° C. for later use. At the same time, liver tissue was collected, rinsed with normal saline, then blotted dry with absorbent paper, weighed, and frozen at −20° C. for later use.

human TLR8 = molecular target: T2, human TLR8 (Homo sapiens, UniProt Q9NR97); test: hTLR8 receptor binding activity in vitro (HEK-Blue hTLR8 SEAP reporter); assay type: cell-based; conditions: for EC50: HEK-Blue hTLR8 cells, 24 hours, SEAP OD650; for selectivity for TLR8 activation: TLR8 versus TLR7, compared with compound X
T2 construct: host or cells: HEK-Blue hTLR8 (HEK293-derived)
T2 sequence (Q9NR97 27-1041): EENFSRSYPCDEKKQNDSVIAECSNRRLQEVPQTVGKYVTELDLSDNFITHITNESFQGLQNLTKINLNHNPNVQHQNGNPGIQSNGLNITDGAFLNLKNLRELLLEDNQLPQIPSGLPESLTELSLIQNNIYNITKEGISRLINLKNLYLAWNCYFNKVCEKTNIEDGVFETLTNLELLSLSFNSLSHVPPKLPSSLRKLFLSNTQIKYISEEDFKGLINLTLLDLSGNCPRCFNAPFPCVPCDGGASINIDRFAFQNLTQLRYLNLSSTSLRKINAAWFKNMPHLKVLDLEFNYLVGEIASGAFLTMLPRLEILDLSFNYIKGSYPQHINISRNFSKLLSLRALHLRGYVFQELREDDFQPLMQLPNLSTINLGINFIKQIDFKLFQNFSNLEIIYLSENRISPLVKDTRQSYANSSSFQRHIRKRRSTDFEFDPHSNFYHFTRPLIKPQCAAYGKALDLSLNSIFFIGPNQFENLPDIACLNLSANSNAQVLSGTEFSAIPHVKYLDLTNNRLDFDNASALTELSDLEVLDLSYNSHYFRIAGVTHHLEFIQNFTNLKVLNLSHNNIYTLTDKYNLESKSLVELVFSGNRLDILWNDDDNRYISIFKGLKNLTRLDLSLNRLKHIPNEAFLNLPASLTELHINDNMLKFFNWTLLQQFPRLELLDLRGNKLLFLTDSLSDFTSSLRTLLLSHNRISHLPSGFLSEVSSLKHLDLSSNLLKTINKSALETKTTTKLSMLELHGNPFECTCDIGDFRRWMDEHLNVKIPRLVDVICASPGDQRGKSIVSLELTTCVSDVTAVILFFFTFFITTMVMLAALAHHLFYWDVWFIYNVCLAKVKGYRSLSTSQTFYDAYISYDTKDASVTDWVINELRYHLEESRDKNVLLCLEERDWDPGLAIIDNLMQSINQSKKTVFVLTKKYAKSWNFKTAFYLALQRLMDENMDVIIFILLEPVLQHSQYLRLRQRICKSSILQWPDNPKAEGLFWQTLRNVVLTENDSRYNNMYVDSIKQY
Description: as §1, §2, §3, §4

[5] = 24 hours, Celltiter-Glo, read-out: CC50
[6] = read-out: cytotoxic CC50 on human PBMC
[7] = human PBMC, 24 hours, ELISA OD450, read-out: IL-12p40 EC50

Structure (SMILES): CCCC[C@](C)(CNC(C)=O)Nc1nc(N)nc2cc(C(=O)N(C)C)cnc12 [Compound A]
EC50 (human TLR7): > 33 µM | CC50 at 24 h [1]: > 33 µM | EC50 (IL-12p40 in human PBMC; Homo sapiens, PBMC, 24 h, read-out: IL-12p40 EC50): 0.031 µM | EC50 (IL-12p40 in human PBMC; Homo sapiens, PBMC, read-out: induced activity EC50 on IL-12p40): 0.031 µM | CC50 at 24 h [2, 5]: > 33 µM | CC50 at 24 h [2, 6]: > 10 µM | AUC(0-inf) ([3]; IV 5 mg/kg): 877 ng·h/mL | AUC(0-t) ([3]; IV 5 mg/kg): 876 ng·h/mL | Cmax ([3]; IV 5 mg/kg): 1830 ng/mL | MRT last ([3]; IV 5 mg/kg): 22.8 min | Tmax ([3]; IV 5 mg/kg): 4.98 min | clearance ([3]; IV 5 mg/kg): 95 mL/min/kg | half-life ([3]; IV 5 mg/kg): 40.8 min | Vd ([3]; IV 5 mg/kg, read-out: Vz): 5.59 L/kg | AUC(0-inf) ([3]; PO 50 mg/kg): 1260 ng·h/mL | AUC(0-t) ([3]; PO 50 mg/kg): 1250 ng·h/mL | Cmax ([3]; PO 50 mg/kg): 1170 ng/mL | MRT last ([3]; PO 50 mg/kg): 116 min | Tmax ([3]; PO 50 mg/kg): 25.2 min | bioavailability ([3]; PO 50 mg/kg): 14.2% | half-life ([3]; PO 50 mg/kg): 345 min | Kp at 1 h [4]: 12.3 | Kp at 4 h [4]: 34.4

Structure (SMILES): CCCC[C@](C)(CNC(C)=O)Nc1nc(N)nc2cc(NC3CC3)cnc12 [Compound B]
EC50 (human TLR7): 28.4 µM | EC50 (human TLR8): 0.029 µM | selectivity for TLR8 activation (human TLR8): higher selectivity for TLR8 activation than compound X | CC50 at 24 h [1]: > 33 µM | EC50 (IL-12p40 in human PBMC; [7]): 0.02 µM | EC50 (IL-12p40 in human PBMC; human PBMC, read-out: induced activity EC50 on IL-12p40): 0.02 µM | CC50 at 24 h [2, 5]: 28.9 µM | CC50 at 24 h [2, 6]: > 10 µM

Structure (SMILES): CCOCc1nc2c(N)nc3ccccc3c2n1CC(C)(C)O [Compound R848, reference compound]
CC50 at 24 h [1]: > 71 µM | EC50 (IL-12p40 in human PBMC; [7]): 0.208 µM | CC50 at 24 h [2, 5]: > 71 µM

Structure (SMILES): CCCC[C@](C)(CNC(C)=O)Nc1nc(N)nc2cc(C(=O)N3CC4(CCN(c5ccccc5)CC4)C3)cnc12 [Compound T]
EC50 (human TLR7): > 33 µM | EC50 (human TLR8): 0.207 µM | CC50 at 24 h [1]: > 33 µM

Continued, in another order:

EC50 (human TLR7): > 33 µM | EC50 (human TLR8): 0.049 µM
Structure (SMILES): CCCC[C@](C)(CNC(C)=O)Nc1nc(N)nc2cc(C(C)=O)cnc12 [Compound V]
selectivity for TLR8 activation (human TLR8): higher selectivity for TLR8 activation than compound X | CC50 at 24 h [1]: > 33 µM

EC50 (human TLR7): 11.9 µM | EC50 (human TLR8): 0.04 µM | Kp at 1 h [4]: 6.9 | Kp at 4 h [4]: 23.6
Structure (SMILES): CCCC[C@](C)(CNC(C)=O)Nc1nc(N)nc2cc(CC)cnc12 [Compound X, reference compound]
CC50 at 24 h [1]: > 33 µM
